Laboratory results: publication PMC10299588, “Bromotyrosine-Derived Metabolites from a Marine Sponge Inhibit Pseudomonas aeruginosa Biofilms” (International Journal of Molecular Sciences, 2023)
“Also recorded” adds a separate entry of the source. Values belong to the compound of their own block, whether it stands above or below them.

Tests used:
Format in all cases: cell-based, Pseudomonas aeruginosa
[1] = test system: planktonic P. aeruginosa PAO1; assay: Minimum inhibitory concentration (MIC) determination; conditions: Pseudomonas aeruginosa; planktonic (free-living) PAO1, LB medium, 18 h, 37 °C
Method: The minimum inhibitory concentration (MIC) of compounds and antibiotics were performed as previously described, with minor modification. […] Three antibiotics, including tobramycin, ciprofloxacin, and meropenem, were dissolved in water and filter sterilized. Ten microliters of two-fold serially diluted antibiotics were transferred to a 96-well Costar plate (Corning Inc., Corning, MA, USA) followed by the addition of 90 µL of diluted cultures. After an 18-h incubation at 37 °C in the static condition, optical density OD600 was monitored using a Synergy 2 microplate reader (BioTek, Winooski, VT, USA). […] The MIC was determined as the lowest concentrations of antibiotics that inhibit complete bacterial growth compared to growth control.

[2] = test system: PAO1ΔpelF (Pel deletion mutant); assay: Biofilm inhibition assay (OD600 growth and resazurin biofilm viability); conditions: ciprofloxacin alone, sub-MIC
Method: (§1) Figure 2 Biofilm assays to identify compounds that prevent biofilm formation. Biofilm inhibition assay. P. aeruginosa cultures were seeded into 384-well plates after dispensing compounds and antibiotics. The plates were incubated for 24 h at 37 °C followed by recording bacterial growth (OD600) and measuring the viability of biofilm bacteria using resazurin.
(§2) The overnight cultures at 37 °C in LB medium were washed once with sterile saline 0.9% (w/v) and adjusted to an OD600 of 0.05, and 1% inoculum was transferred into a fresh LB medium. Following incubation at 37 °C, 200 rpm for 6–6.5 h to reach the mid-log phase, the cells were washed once with sterile saline 0.9% and diluted to an OD600 of 0.01. Then, 45 µL aliquots were dispensed into 384-well plates (Greiner Bio-One, Kremsmünster, Austria, catalog no. 781091). In biofilm inhibition assays, test compounds (5 µL) were loaded prior to the addition of bacteria. The plates were incubated for 24 h at 37 °C in static conditions. The effects of compounds on bacterial growth and viability of biofilm bacteria were determined by the OD600 and resazurin metabolic assay, respectively. The final concentrations of DMSO in the assays were 1–2%. The negative controls or untreated cultures consisted of inoculum and different concentrations of DMSO. Antibiotic ciprofloxacin (0.25 µg/mL and 25 µg/mL) was used as positive controls. The initial OD600 and final OD600 were read before incubation at 37 °C and after 24 h incubation, respectively, followed by assessment of biofilm viability by resazurin metabolic assay. The experiments were carried out with three technical replicates and repeated at least twice. The growth inhibition was calculated as a function of the percentage of the total bacterial inhibition using Equation (1), where AB is the OD600 of LB medium, and AT0 and ATf are the OD600 recorded at inoculating time and at the end of the assay. (1) % Inhibition=100 × [ 1 − [OD600 (Asample Tf− Asample T0)−(AB Tf − AB T0)/OD600 (Anegative control Tf− Anegative control T0)−(AB Tf − AB T0)]]
(§3) Resazurin sodium salt (Sigma-Aldrich, St. Louis, MI, USA) was dissolved in Milli-Q water at 0.2% (w/v) and filter sterilized. The solution was stored at −20 °C in the dark. The assay was performed as previously described with modification. The cultures were withdrawn, and the plates were washed three times with sterile water using the plate washer (BioTek). To remove the remaining water in the wells, the plates were tapped with autoclaved paper towels. An amount of 50 µL of diluted RSZ solution in LB medium was added into each well, followed by incubation at 37 °C for 5–6 h. A microplate reader (BioTek Synergy 2) was used to measure the fluorescence intensity (excitation 530 nm, emission 590 nm). Data collected were determined as a function of fluorescence percentage using Equation (2), where FB is the fluorescence of the diluted RSZ solution in LB medium in the absence of P. aeruginosa cells. (2) % Inhibition=[(Fnegative control −FB )−(Fsample −FB )/(Fnegative control − FB )]×100

[3] = test system: PAO1ΔpslA (Psl deletion mutant); assay: as above
Method: as §1, §2, §3

[4] = test system: DNA damage reporter strain MDM-623; assay: Cellular bioluminescent assay (DNA damage reporter); conditions: 8 h; ciprofloxacin at 0.0625, 0.083, 0.25 and 25 µg/mL
Text: Ciprofloxacin, a fluroquinolone antibiotic, has been extensively utilized to treat various bacterial infections. It targets bacterial DNA topoisomerase and DNA gyrase, which produce breakage of double-stranded DNA, ultimately leading to cell death. […] In the effort of identifying the mechanisms of action of test compounds, we employed a DNA damage reporter strain MDM-623, which was constructed based on the promoter-luciferase reporter gene. The increased luminescence readouts are indicative of gyrase inhibition-induced promoter upregulation through the recA pathway. […] Nevertheless, there was no difference in the response of MDM-623 upon exposure to test compounds and the solvent (Figure 5E). The above results may imply that test compounds are unlikely to be DNA gyrase inhibitors and that their mechanism of action is unrelated to that of ciprofloxacin.
The reporter strain MDM-623 was kindly provided by Dr. Timothy Opperman (Microbiotix, Inc., Worcester, MA, USA). The strain harbors a promoter region from PA0614 fused to Photorhabdus luminescens luciferase luxCDABE operon, which was constructed to respond to DNA damage. All experiments were carried out as previously described with minor modification. […] Luminescence was monitored using a BioTek Synergy H1 Hybrid microplate reader for 8 h at 30-min intervals. […]

PAO1 biofilms = assay: Fluorescence microscopy of biofilms (SYTO9/propidium iodide)
Method: (§4) Biofilms of wild-type PAO1 and isogenic biofilm matrix component mutants were treated with ianthelliformisamines or ciprofloxacin alone and the combinations. Their biofilms were simultaneously stained with SYTO9 (green) and propidium iodide (red). Cells with intact membranes were stained green, while cells with compromised membranes were stained red.
(§5) For biofilm bacteria imaging, bacteria were cultured, treated with test compounds, and washed, as previously mentioned in the biofilm inhibition assay. The biofilm bacteria were stained using a LIVE/DEAD BacLight bacterial viability kit (Molecular Probes, Inc., Eugene, OR, USA), which consists of SYTO9 (green; staining cells with intact membrane) and propidium iodide (red; staining cells with compromised membrane). Images were captured using a high-content imaging system Operetta CLS (Perkin Elmer, Waltham, MA, USA) with a 60× water-immersion objective.

PAO1ΔpslA biofilms = assay: as above; conditions: alone
Method: as §4, §5

PDO300 biofilms = assay: as above
Method: as §4, §5

PDO300Δalg8 biofilms = assay: as above
Method: as §4, §5

PAO1ΔpelF biofilms = test system: PAO1ΔpelF biofilms
Method: as §4, §5

[5] = test system: outer membrane of wild-type PAO1 cells; assay: NPN uptake assay (outer membrane permeability); conditions: PAO1 pre-treated with 100 µM CCCP, 30 min; polymyxin B at 6.4 and 10 µg/mL
Method: The effect of ianthelliformisamines on the permeability of the outer membrane was determined using an NPN uptake assay. NPN (1-N-phenylnapthylamine), a hydrophobic fluorescent probe, is excluded from the intact outer membranes of Gram-negative bacteria such as P. aeruginosa. It intensely fluoresces once it gains access to the phospholipid layer of membrane-compromised cells (Figure 5A). The experiments were conducted with different concentrations of ianthelliformisamines and sub-inhibitory doses of ciprofloxacin. […] The level of fluorescence intensity in bacteria challenged with test compounds, even at highest testing concentrations, resembled that in cells treated with DMSO.
The permeability of the outer membrane upon exposure to test compounds was assessed using a 1-N-phenylnapthylamine (NPN) uptake assay. An overnight culture of PAO1 was grown to an OD600 of 0.5, centrifuged, washed with HEPES buffer (5 mM, pH 7.2), and re-suspended in HEPES buffer containing 100 µM CCCP. […] Ninety microliters of the cell suspension were added to the flat-bottomed, black 96-well plate containing 10 µL of test compounds, and the NPN fluorescence was immediately monitored using a BioTek Synergy H1 Hybrid microplate reader at an excitation of 350 nm and an emission of 420 nm every min for 30 min. […]

MIC [1]: 2 µg/mL
Compound: NC[C@H]1O[C@H](O[C@H]2[C@H](O)[C@@H](O[C@H]3O[C@H](CO)[C@@H](O)[C@H](N)[C@H]3O)[C@H](N)C[C@@H]2N)[C@H](N)C[C@@H]1O [tobramycin, reference compound]

MIC [1]: 0.375 µg/mL
Compound: C[C@@H](O)[C@H]1C(=O)N2C(C(=O)O)=C(S[C@@H]3CN[C@H](C(=O)N(C)C)C3)[C@H](C)[C@H]12 [meropenem, reference compound]

Compound: O=C(O)c1cn(C2CC2)c2cc(N3CCNCC3)c(F)cc2c1=O [ciprofloxacin, reference compound]
MIC [1]: 0.25 µg/mL
biofilm response (reduction) [2]: ~ 60%
bacterial growth inhibition ([3]; alone at 1/3 MIC): moderately inhibited
prevention of biofilm formation ([3]; alone at 1/3 MIC): completely prevented
reduction of bacterial growth ([3]; alone at 1/3 and 1/4 MIC): > 40%
suppression of biofilm formation ([3]; alone at 1/3 and 1/4 MIC): ~ 100%
effect on survival of suspended cells ([3]; sub-lethal doses (1/3, 1/4 MIC) alone): ~ 50%
luminescence response of DNA damage reporter (gyrase inhibition) [4]: steadily enhanced
cell phenotype (PAO1 biofilms): long, filamentous phenotypes as well as small, round spheroplasts
biofilm after treatment (PAO1ΔpslA biofilms): unable to form biofilms; also recorded: eradicated
cell phenotype (PDO300 biofilms): long, filamentous phenotypes as well as small, round spheroplasts
cell phenotype (PDO300Δalg8 biofilms): long, filamentous phenotypes as well as small, round spheroplasts
cell phenotype (PAO1ΔpelF biofilms): long, filamentous phenotypes as well as small, round spheroplasts

Compound: polymyxin B
outer membrane permeabilization (NPN fluorescence) [5]: prominent fluorescence
